# Results taken from patent EP4640694A1, “SELF-ASSEMBLING PEPTIDE” (CYTOPORT (TIANJIN) BIOTECHNOLOGY CO., LTD, priority 2022, dated 2025).
# Where a SMILES comes first, the peptide text is derived from it. [ ]: non-standard residue; d: D form. Hyp = O=C(O)[C@@H]1C[C@@H](O)CN1
# Columns and labels:
# HepG2 cells = test: Cytocompatibility: relative viability (CCK-8) and cell counting over 5 days; type: cell-based; conditions: 0.1%, 0.3%, 0.5%, 0.7% peptide, 5 days without medium change
# Experimental: The method in Experiment I for preparing a cell suspension at a concentration of 5×10^5 cells/mL was used to prepare a cell suspension at a concentration of 5×10^4 cells/mL. The cells obtained at a concentration of 5×10^4 cells/mL were inoculated into 96-well plates with each well containing about 5,000 cells. In the experimental groups, the self-assembling peptide sol prepared according to the method in Example 2 was added to achieve the concentrations of polypeptide of 0.1%, 0.3%, 0.5%, and 0.7% in the final system. In the control group, an equal volume of PBS buffer was added to replace the peptide solution, respectively. […] During the experiment, 10% of the culture volume of CCK-8 kit was added every 24 hours, and after incubation for 30 minutes, the OD values of each group were measured using an enzyme labeler (parameter setting: primary wavelength of 450 nm, secondary wavelength of 630 nm), and all experiments were set up with 5 parallel groups, and the results of the experiments were shown in Figure 9A. Relative cell viability was calculated using the formula below: Relative cell viability (%) = (At−A0t)/(A1−A01) × 100%; [formula]
# Wherein At is the average OD values measured after t days of culturing cells. A0t is the average value of blank background measured after t days. […]
# HepG2 = test: Cell condition after culture: 5-day viability of cells harvested from spheroids; type: cell-based; conditions: cells harvested after 15 days in 0.1 wt.% peptide, 5-day viability test
# Source text: In this experiment, cell spheroids cultured in Experiment III using the polypeptides as shown in SEQ ID NO.: 13 (IIIIIGOGIIGPGGEGPGGE) of the present invention at a concentration of 0.1 wt.% initiated by high-glucose medium were collected by centrifugation and digested into single cells. The applicability of the material of the present invention in cell culture and biomedical field were further evaluated by comparing the cell viability of cells cultured with the material of the present invention with that of cells cultured without the material of the present invention.
# The cell spheroids in Experiment III were collected by centrifugation after 15 days of culture, and the cell spheroids were digested into single cells using trypsin, then centrifuged and collected, and an appropriate amount of high-glucose medium was added to the collected cells to prepare cell suspensions at concentrations of 5×10^5 and 5×10^4 cells/mL. Cell suspensions at a concentration of 5 ×10^4 cells/mL were inoculated into 96-well plates so that each well contained 5,000 cells. A cell suspension at a concentration of 5×10^4 cells/mL was prepared according to the method in […] for preparing a cell suspension at a concentration of 5×10^5 cells/mL and it was inoculated into a 96-well plate so that each well contained 5,000 cells, which served as a control group for this experiment. […]
# [1] = Rheological experiment, energy storage modulus (G') of peptide/serum mixture; type: physicochemical; conditions: 0.5% peptide, 10 v/v% fetal bovine serum, neutral pH
# Source text: Experimental Methods: Preparation of Self-Assembling Peptide Material Samples: 2 wt% of the self-assembling peptide solution obtained in Example 2 was used, the sequences as shown in SEQ ID NO:1 (IIIIGSIIGPGGDGPGGV), SEQ ID NO:2 (IIIIGSIIGPGGEGPGGV), SEQ ID NO:3 (IIIIGSIIGOGGEGPGGV), SEQ ID NO:4 (IIIIGSIIGOGGGEGPGGV), SEQ ID NO:5 (IIIIGSIIGOGGEGPGGGV), SEQ ID NO:6 (IIIIGSIIGOGGEGPGV), SEQ ID NO:7 (IIIIGSIIGOGAEGPGGV), SEQ ID NO:8 (IIIIIGSIIOGGAEGPGGV), SEQ ID NO:9 (IIIIIGSIIGOGGVGPGGV), and SEQ ID NO: 10 (IIIIIIGSIIGOGAEGPGGVGPGGV).
# Preparation of hydrogel samples formed by self-assembling peptide solutions in response to cell complete medium: 2 wt% of stock solution of self-assembling peptides obtained in Example 2 was diluted with phosphate buffer, added by fetal bovine serum to achieve a mixture solution with a final concentration of self-assembling peptide of 0.5%, a final concentration of serum of 10 v/v% with a neutral pH.
# The energy storage modulus (G') of the mixture solution was measured on a 20 mm plate using MARS 60 rheometer. In order to determine the rate of formation of three-dimensional nanomatrix, the solution was placed on a plate for testing immediately after preparation. A gap of 500µm was used, mineral oil was added to the gap to prevent dehydration of the samples, and data collection commenced immediately. Dynamic Time-Scanning experiment (DTS) was performed to monitor changes in energy storage modulus (G') with time (1 Hz frequency, 1% strain) for 2000 min.
# [2] = system: mouse mesenchymal stem cells; test: Cell storage at 4°C, Calcein-AM/PI live/dead staining by flow cytometry; type: cell-based; conditions: for survival rate of mouse mesenchymal stem cells: 3D storage group, 0.05% peptide
# Experimental: Experimental Methods: Storage of mouse mesenchymal stem cells at 4°C was taken as an example in this experiment. The isolated mouse mesenchymal stem cells were mixed well by pipetting, […] aliquots were dispensed into freezing tubes, and mixed well by pipetting so that their cell concentration was about 1×10^6 cells/mL. In 3D group, mouse serum, 1% of double antibody of 50% MAP+50% SFEM storage solution and the polypeptide as shown in SEQ ID NO.:20 (FLIVIGOGIIGOGGEGPGGE) were added to a final concentration of 0.05%. In 2D group, mouse serum and 1% of double antibody of 50% MAP+50% SFEM storage solution were added, followed by storage in a 4°C refrigerator.
# Cell viability test: • (1) The preserved cells were thoroughly pipetted and mixed well, 500 µL of each cell suspension was taken into a 1.5 mLEP tube, PBS was added for washing, followed by centrifugation at 1,500 rpm for 10 minutes; and • (2) The supernatant was discarded, and the cells were resuspended in 150 µL of 1% PBA solution. Then, 150 µL of live/dead cell staining working solution was added, mixed thoroughly, and incubated at 37°C in a light-protected manner for 15 minutes. The samples were analyzed using a flow cytometer.
# erythrocytes [3] = test: Erythrocyte support by different sequences under liquid conditions; type: cell-based; conditions: 0.01 wt% peptide, 0.1 wt% fibronectin, 1×10^8 erythrocytes
# Experimental: Experimental Methods: PBS buffer was used to separately prepare a concentration of 0.1 wt% stock solutions of self-assembling peptides as shown in SEQ ID NO.: 1 (IIIIIGSIIGPGGDGPGGV), SEQ ID NO.: 2 (IIIIIGSIIGPGGEGPGGV), SEQ ID NO.: 3 (IIIIIGSIIGOGGEGPGGV), and SEQ ID NO.: 7 (IIIIIGSIIGOGAEGPGGV). These solutions were autoclaved.
# Using 2 mL clear glass vials, 4 materials were prepared at concentrations of 0.1 wt%, 0.05 wt%, and 0.01 wt% in 2 mL of self-assembling peptide solution (containing a final concentration of 0.1 wt% of fibronectin) and a blank group (without self-assembling peptide solution, but containing 0.1 wt% of fibronectin). A stock solution of at a concentration of 5×10^9 erythrocytes was added to each sample to a final concentration of 1×10^8, and the mixture was homogenized by pipetting. Photographs were taken every 4 hours to compare the effects of different materials on the support for erythrocytes.
# erythrocytes [4] = test: Erythrocyte support experiment with different initiator components; type: cell-based
# Experimental: Experimental Methods: […] of erythrocyte stock solution (9.17×10^9/mL) was taken and diluted to 10 mL (9.17×10^7/mL) with 10 mM PBS, 4.5mL of erythrocyte dilution was added to a 10 ml of round-bottom tube and 4.5 mL of 4 mmol/L Calcein-AM solution was added, and the mixture was incubated at 37°C for 20 min and then centrifuged at 4°C, 1500r/min for 3 min. The supernatant was removed, and the pellet was resuspended in PBS, and repeated for 5 times to obtain about 1.5 mL of washed erythrocyte resuspension (1×10^8/mL) for latter use.
# Experimental Results: PBS buffer was added to the erythrocyte resuspension solution to dilute the erythrocytes to 1×10^7/mL, and the mixture was allowed to stand for 4 hours, and the result was shown in Tube A in Figure 6.
# The 1 wt% of self-assembling peptide solution (SEQ ID NO.:3) obtained in Example 2 was added ro make the final peptide concentration in the system of 0.05 wt% and the final concentration of erythrocytes of 1×10^7/mL, and the mixture was allowed to stand for 4 hours, and the result was shown in Tube B in Figure 6.
# The mixed solution of polypeptide as shown in SEQ ID NO.:3 with lysine obtained in Example 3 was added to the erythrocytes resuspension solution, i.e., the polypeptide formed a three-dimensional network scaffold material in the presence of lysine, achieving a final peptide concentration in the system of 0.05 wt.%, mixing well and standing, and the result was shown in Tube C in Figure 6.
# (§1) The mixted solution of self-assembling peptide as shown in SEQ ID NO.:3 with gentamicin obtained in Example 2 was added to the erythrocytes resuspension solution, i.e., the polypeptide formed the three-dimensional network scaffold material in the presence of gentamicin, achieving a final peptide concentration in the system of 0.05 wt.%, mixing well and standing, and the result was shown in Tube D in Figure 6.
# as §1, with “with polylysine” for “with gentamicin”, “the self-assembling peptide” for “the polypeptide”, “of polylysine,” for “of gentamicin,”, “Tube E” for “Tube D”
# as §1, with “with fibrinogen” for “with gentamicin”, “Example 3” for “Example 2”, “the self-assembling peptide” for “the polypeptide”, “of fibrinogen,” for “of gentamicin,”, “Tube F” for “Tube D”
molecule,measurement,setting,value
"CC[C@H](C)[C@H](N)C(=O)N[C@H](C(=O)N[C@H](C(=O)N[C@H](C(=O)N[C@H](C(=O)NCC(=O)N1C[C@H](O)C[C@H]1C(=O)NCC(=O)N[C@H](C(=O)N[C@H](C(=O)NCC(=O)N1CCC[C@H]1C(=O)NCC(=O)NCC(=O)N[C@@H](CCC(=O)O)C(=O)NCC(=O)N1CCC[C@H]1C(=O)NCC(=O)NCC(=O)N[C@@H](CCC(=O)O)C(=O)O)[C@@H](C)CC)[C@@H](C)CC)[C@@H](C)CC)[C@@H](C)CC)[C@@H](C)CC)[C@@H](C)CC [SEQ ID NO.: 13, IIIIIGOGIIGPGGEGPGGE] (H-IIIIIG[Hyp]GIIGPGGEGPGGE-OH)",growth curve (cell counting) over 5 days,HepG2 cells,grew with a relatively uniform and stable proliferation rate
same,relative cell viability over 5 days (CCK-8),HepG2 cells,uniform and continuous steady increase in cell viability
same,cell viability of harvested cells compared with control group,HepG2,slightly better than that of the control group
IIIIGSIIGOGGGEGPGGV [SEQ ID NO.: 4],hydrogel structure and elasticity in response to serum,[1],could still form a hydrogel structure but with weaker elasticity
IIIIIGSIIGOGGGEGPGGGV [SEQ ID NO.: 5],hydrogel structure and elasticity in response to serum,[1],could still form a hydrogel structure but with weaker elasticity
FLIVIGOGIIGOGGGEGPGGE [SEQ ID NO.: 20],survival rate of mouse mesenchymal stem cells,[2]; day 3 of storage (2D group 67%),79%
same,survival rate of mouse mesenchymal stem cells,[2]; day 5 of storage (2D group 43%),71%
same,increase in survival versus 2D storage,[2]; day 5 of storage,~30%
IIIIIGSIIGOGGGEGPGGV [SEQ ID NO.: 3],time at which significant sedimentation of erythrocytes was shown,erythrocytes [3],32 h
same,erythrocyte distribution,"erythrocytes [4]; Tube B: 0.05 wt% peptide alone, no initiator, 1×10^7/mL erythrocytes, 4 hours",significant sedimentation
same,erythrocyte distribution,erythrocytes [4]; Tube C: 0.05 wt.% peptide with lysine,stereoscopic distribution
same,erythrocyte distribution,erythrocytes [4]; Tube D: 0.05 wt.% peptide with gentamicin,stereoscopic distribution
same,erythrocyte distribution,erythrocytes [4]; Tube E: 0.05 wt.% peptide with polylysine,stereoscopic distribution
same,erythrocyte distribution,erythrocytes [4]; Tube F: 0.05 wt.% peptide with fibrinogen,three-dimensional stereoscopic dispersion of the erythrocytes
IIIIIGSIIGOGGGEGPGV [SEQ ID NO.: 6],hydrogel structure and elasticity in response to serum,[1],could still form a hydrogel structure but with weaker elasticity
